In the assay the test system is arteriovenous shunt model in rats. Nature of the assay: Antithrombotic effect in an arteriovenous shunt model in rats. Format: in vivo. As to the method:
a) Determination of the Antithrombotic Effect in an Arteriovenous Shunt Model in Rats Fasting male rats (strain: HSD CPB:WU) were anesthetized by intraperitoneal administration of a Rompun/Ketavet solution (12 mg/kg/50 mg/kg). Thrombi were generated in an arteriovenous shunt in which a thrombogenic thread was secured, based on the method described by P C Wong et al. (Wong […], Nguan O, Watson […]. […] For this purpose, the left jugular vein and the right carotid artery were exposed. An 8 cm-long polyethylene catheter (PE60, Becton-Dickinson), followed by a 6 cm-long Tygon tube (R-3606, ID 3.2 mm, Kronlab), which contained a roughened, thrombogenic nylon thread (60×0.26 mm, […]) made into a double loop, was secured in the artery. A 2 cm-long polyethylene catheter (PE60, Becton-Dickinson) was secured in the jugular vein and connected via a 6 cm-long polyethylene catheter (PE160, Becton-Dickinson) to the Tygon tube. The tubes were filled with physiological saline solution before the shunt was opened. The extracorporeal circulation was maintained for 15 minutes. The shunt was then removed, and the nylon thread with the thrombus was immediately weighed. The empty weight of nylon thread has been determined before the start of the test. The FXa inhibitor (such as rivaroxaban) was administered to the animals intravenously, and acetylsalicylic acid (ASA) and/or ADP receptor antagonist (such as clopidogrel) was administered orally by gavage before setting up the extracorporeal circulation.

[1] abbreviates: doses [mg/kg]: Example 44 0.01 iv, Clopi + ASA 1 po + 3 po, triple 0.01 iv + 1 po + 3 po.
Where [2] appears, read: doses [mg/kg]: Example 44 0.03 iv, Clopi + ASA 1 po + 3 po, triple 0.03 iv + 1 po + 3 po.

For the compound `O=C(NC[C@H]1CN(c2ccc(N3CCOCC3=O)cc2)C(=O)O1)c1ccc(Cl)s1` [Example 44, 5-Chloro-N-({(5S)-2-oxo-3-[4-(3-oxo-4-morpholinyl)phenyl]-1,3-oxazolidin-5-yl}methyl)-2-thiophencarboxamide], under setting [1], the “Antithrombotic effect (assessment in words)” value is reported as “No effect” and the “Thrombus reduction [%]” value came to 18%. Under setting [2], the “Antithrombotic effect (assessment in words)” value is on record as “No effect” and the “Thrombus weight reduction [%]” value came out at 20%. The “Antithrombotic effect, summary of Table 1 in words” value (doses of Table 1) is recorded as “ineffective”.

The record behind these values is patent US20160303138A1, “Combination Therapy Of Substituted Oxazolidinones” (Bayer Intellectual Property GMBH, priority 2006, published 2016).
